Reference: patent US10987351B2, “RORgamma modulators and uses thereof” (Genfit, priority 2017, dated 2021)

Experiments:
[1] = molecular target: T1, human RORγt (Homo sapiens, UniProt P51449); assay: RORE Luciferase/RORγt transactivation assay; type: cell-based; parameters: the full-length cDNA of human RORγt; V5-His (encoded by the vector); expressed in transfected cells; host or cells: COS-7 (monkey kidney); conditions: COS-7 cells transfected with human IL-17 promoter luciferase reporter and RORγt plasmid, 20 h; read-out: IC50, RORγt activity inhibition (luciferase reporter)
T1 sequence (P51449 1-497 isoform P51449-2): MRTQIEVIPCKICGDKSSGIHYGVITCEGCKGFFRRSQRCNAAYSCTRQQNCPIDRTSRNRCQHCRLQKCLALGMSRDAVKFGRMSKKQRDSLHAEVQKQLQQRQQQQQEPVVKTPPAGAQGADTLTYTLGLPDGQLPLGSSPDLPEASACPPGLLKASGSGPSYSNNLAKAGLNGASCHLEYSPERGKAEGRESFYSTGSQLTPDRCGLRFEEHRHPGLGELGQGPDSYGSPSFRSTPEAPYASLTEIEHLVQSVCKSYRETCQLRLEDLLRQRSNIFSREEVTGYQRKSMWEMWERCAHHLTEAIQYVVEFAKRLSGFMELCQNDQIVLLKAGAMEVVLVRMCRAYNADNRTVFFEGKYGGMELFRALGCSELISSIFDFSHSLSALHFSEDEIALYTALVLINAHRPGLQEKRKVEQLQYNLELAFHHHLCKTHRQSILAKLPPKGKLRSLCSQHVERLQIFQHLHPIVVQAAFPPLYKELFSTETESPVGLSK
Procedure: It is well known that RORγ binds to a conserved non-coding sequence (CNS) enhancer element in the IL-17 promoter.
Culture medium was changed every 2 days.
The 4.3 Kb human IL-17 promoter containing the RORγ-specific CNS enhancer element was PCR amplified from human genomic DNA and cloned into a pGL3-TKLuc2Cp reporter plasmid.
The luciferase reporter plasmid and the RORγt overexpression plasmid were transfected into COS-7 cell line using 4 μLJetPEI™/μg of DNA. Briefly, 150 ng of DNA (ration 1/2 between RORE-Tk Luc2Cp and cDNA RORγt or the empty vector for the negative control) was served to transfect adherent COS-7 cells in a […] culture flask, in complete medium (see cos-7 cell line culture).
Cells were then detached (using trypsin) and washed by centrifugation at 300 g for 10 minutes. Cell pellet was resuspended in serum free/phenol red free DMEM and seeded in 384 well plates at a density of 10000 cells/well and then incubated for 4 h at 37° C.
Compounds were dissolved in 100% DMSO to obtain 10 mM stock solutions. For each compound, test concentrations were diluted in serum free/phenol red free DMEM using the Genesis Freedom 200™ (TECAN) and added to the cells to obtain a 0.3% DMSO final concentration (in a final volume of 40 μL per well).
The luciferase activity was then measured with 40 μL/well steady-Glo Luciferase assay system (Promega, Madison, Wis.) and after incubation at room temperature for 30 minutes. The luminescence was estimated using the Ultra384 reader (TECAN). Data were collected and analyzed using GraphPad Prism software (GraphPad Software V5.02, San Diego Calif. USA). IC50 in μM and Emax in % were reported for each compound.

[2] = molecular target: T2, RORγt ligand-binding domain (RORγt-LBD) (Homo sapiens, UniProt P51449); assay: Time-resolved FRET (TR-FRET) RORγt coactivator assay; type: biochemical; conditions: GST-RORγ-LBD, biotinylated RIP140 peptide, 2 hours; read-out: IC50, coactivator-RORγt binding inhibition (TR-FRET)
T2 construct: 20 nM recombinantly expressed RORγ-LBD fused to GST
T2 sequence (P51449 269-508 limits assumed): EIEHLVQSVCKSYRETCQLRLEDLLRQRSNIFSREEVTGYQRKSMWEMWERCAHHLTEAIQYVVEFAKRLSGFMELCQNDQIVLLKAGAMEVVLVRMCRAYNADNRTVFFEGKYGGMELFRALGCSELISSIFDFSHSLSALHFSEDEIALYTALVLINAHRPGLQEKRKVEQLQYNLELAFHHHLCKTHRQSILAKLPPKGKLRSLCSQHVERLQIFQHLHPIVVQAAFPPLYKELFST
Source text: Time-resolved FRET (TR-FRET) RORγt coactivator assay was used to identify RORγ modulator compounds with ligand-dependent coactivator displacement. The assay uses a d2-labeled anti-GST antibody, synthetic N-terminally biotinylated peptide which is derived from nuclear receptor coactivator protein RIP140, and a RORγt ligand-binding domain (RORγt-LBD) that is tagged with glutathione-S-transferase (GST). The influence of compounds on the RORγ-peptide interaction relies on the binding dependent energy transfer from a donor to an acceptor fluorophor attached to the binding partner of interest. […] For reduction of background from compound fluorescence, TR-FRET method makes use of generic fluorophore labels and time resolved detection.
The assays were done in a final volume of 20 μl in a 384 well plate in a CHAPS buffer (2 mM CHAPS; 1 mM DTT, 2 mM EDTA; 0.1% BSA), containing 20 nM recombinantly expressed RORγ-LBD fused to GST, 30 nM N-terminally biotinylated peptide, 1 nM streptavidin-terbium conjugate and 20 nM d2 labeled-anti-GST. Test compounds were diluted using 10 mM stock solution. The range of the final compound concentrations used in this test was from 0.3 nM to 30 μM (logarithmic scale). DMSO content of the samples was kept at 1%. The assay was equilibrated for 2 hours in the dark at room temperature in 384 well plates (Falcon). The signal was detected by an Ultra384 reader (TECAN). […] Compounds that promote coactivator displacement induce a concentration-dependent decrease in time-resolved fluorescent signal. Data were collected and analyzed using GraphPad Prism software (GraphPad Software V5.02, San Diego Calif. USA). IC50 in μM and Emax in % were reported for each compound.

[3] = molecular target: T1, human RORγt; assay: IL-17 secretion from EL4 murine lymphoma cells overexpressing human RORγt; type: cell-based; conditions: human RORγt-transfected EL4 cells, PMA and ionomycin stimulation; read-out: IC50, inhibition of IL-17 secretion
Procedure: Murine EL-4 lymphoma cell line overexpressing human RORγt was used in this functional assay to assess compound ability to inhibit IL-17 cytokine secretion.
EL-4 cells are maintained in a standard culture medium RPMI supplemented with 10% fetal calf serum, 1% sodium pyruvate, 1% essential amino acids and 1% antibiotics at 37° C. in a humidified atmosphere of 5% CO02 and 95% air. Culture medium was changed every 2 days. EL4 cells were transfected with a plasmid encoding hRORγt (sequence identical to published sequence NM 001001523). […] Briefly, 1 μg of DNA/1 million cells was served to transfect EL-4 cells. Cell/DNA suspension was transferred into certified cuvette and the electroporation of RORγt plasmid was carried out using appropriate Nucleofector® program.
Cells were seeded in 96 well plates at a density of 150000 cells/I well then treated with compounds of this invention at indicated concentrations and incubated for 24 hours at 37° C. in a humidified atmosphere of 5% CO2 and 95% air. EL-4 cells were pretreated with test compounds (RORγ modulators) and stimulated with PMA (10 ng/mL) and ionomycin (1 μM final concentration) in the presence of test compound concentrations for additional 24 h at 37° C. in a humidified atmosphere of 5% CO2 and 95% air. Subsequently, supernatants were collected (after centrifugation at 300 g for 10 minutes) to determine the concentrations of IL-17 by HTRF (CisBio, France) or ELISA (R&D Systems Europe) according to the manufacturer's protocols.

[4] = test system: patients with moderate to severe psoriasis; conditions: cited from earlier work

Compound `CC(=O)N1CCN(c2ccc(F)c(CC(=O)NC(c3ccc(C)o3)c3ccc(C)cc3C)c2)CC1` (centres unmarked) [Cpd.12, 2-[5-(4-acetylpiperazin-1-yl)-2-fluorophenyl]-N-[(2,4-dimethylphenyl)(5-methylfuran-2-yl)methyl]acetamide] has an IC50 [1] of 100 to 1000 nM, an IC50 [2] of less than 100 nM and an IC50 [3] of 1000 to 10000 nM.

`CC(=O)C1CCN(c2ccc(CC(=O)NC(c3ccc(C)o3)c3ccc(C)cc3N3CCCCC3)cc2)CC1` (centres unmarked) [Cpd.19, 2-[4-(4-acetylpiperidin-1-yl)phenyl]-N-{[4-methyl-2-(piperidin-1-yl)phenyl](5-methylfuran-2-yl)methyl}acetamide] showed an IC50 [1] of less than 100 nM, an IC50 [2] of less than 100 nM and an IC50 [3] of 100 to 1000 nM.

For `CCS(=O)(=O)c1ccc(CNC(=O)c2cnc3c(c2)CN(C[C@H]2CC[C@H](C(F)(F)F)CC2)[C@H]3C(C)C)nc1` [VTP-43742], the “reduction in the Psoriasis Area Severity Index (PASI) score relative to placebo” value ([4]; 350 mg dose group) is listed as 24% and the “placebo-adjusted PASI score reduction” value ([4]; 700 mg dose group) is listed as 30%.

In the case of `Cc1ccc(C(NC(=O)Cc2cc(N3CCN(S(C)(=O)=O)CC3)ccc2F)c2ccc(C)o2)c(N2CCCCC2)c1` (centres unmarked) [Cpd.16, 2-[2-fluoro-5-(4-methanesulfonylpiperazin-1-yl)phenyl]-N-{[4-methyl-2-(piperidin-1-yl)phenyl](5-methylfuran-2-yl)methyl}acetamide], the IC50 [1] is reported as 100 to 1000 nM, the IC50 [2] is reported as less than 100 nM and the IC50 [3] is reported as 100 to 1000 nM.

Compound `CC(=O)N1CCN(c2ccc(C)c(CC(=O)NC(c3ccc(C)o3)c3ccc(C)cc3N3CCCCC3)c2)CC1` (centres unmarked) [Cpd.10, 2-[5-(4-acetylpiperazin-1-yl)-2-methylphenyl]-N-{[4-methyl-2-(piperidin-1-yl)phenyl](5-methylfuran-2-yl)methyl}acetamide] has an IC50 [1] of less than 100 nM, an IC50 [2] of less than 100 nM and an IC50 [3] of less than 100 nM.

`COc1ccc(C(NC(=O)Cc2cc(N3CCN(C(C)=O)CC3)ccc2F)c2ccc(C)o2)c(N2CCCCCC2)c1` (centres unmarked) [Cpd.14, 2-[5-(4-acetylpiperazin-1-yl)-2-fluorophenyl]-N-{[2-(azepan-1-yl)-4-methoxyphenyl](5-methylfuran-2-yl)methyl}acetamide] gave an IC50 [1] of 100 to 1000 nM, an IC50 [2] of less than 100 nM and an IC50 [3] of 100 to 1000 nM.

Compound `COc1ccc(C(NC(=O)Cc2cc(N3CCN(C(C)=O)CC3)ccc2C)c2ccc(C)o2)c(N2CCCCCC2)c1` (centres unmarked) [Cpd.11, 2-[5-(4-acetylpiperazin-1-yl)-2-methylphenyl]-N-{[2-(azepan-1-yl)-4-methoxyphenyl](5-methylfuran-2-yl)methyl}acetamide] has an IC50 [1] of 100 to 1000 nM, an IC50 [2] of less than 100 nM and an IC50 [3] of 100 to 1000 nM.

Compound `CC(=O)N1CCN(c2ccc(C)c(CC(=O)NC(c3ccccc3)c3ccc(C)cc3N3CCCC3)c2)CC1` (centres unmarked) [Cpd.3, 2-[5-(4-acetylpiperazin-1-yl)-2-methylphenyl]-N-{[4-methyl-2-(pyrrolidin-1-yl)phenyl](phenyl)methyl}acetamide] has an IC50 [1] of less than 100 nM, an IC50 [2] of less than 100 nM and an IC50 [3] of 100 to 1000 nM.

`CC(=O)N1CCN(c2cccc(CC(=O)NC(c3ccc(C)o3)c3ccc(C)cc3N3CCCCC3)c2)CC1` (centres unmarked) [Cpd.20, 2-[3-(4-acetylpiperazin-1-yl)phenyl]-N-{[4-methyl-2-(piperidin-1-yl)phenyl](5-methylfuran-2-yl)methyl}acetamide] showed an IC50 [1] of less than 100 nM, an IC50 [2] of less than 100 nM and an IC50 [3] of less than 100 nM.

`CC(=O)N1CCN(c2ccc(CC(=O)NC(c3ccccc3)c3ccccc3N3CCCCC3)cc2)CC1` (centres unmarked) [Cpd.1, 2-[4-(4-acetylpiperazin-1-yl)phenyl]-N-{phenyl[2-(piperidin-1-yl)phenyl]methyl}acetamide] gave an IC50 [1] of 100 to 1000 nM, an IC50 [2] of less than 100 nM and an IC50 [3] of 100 to 1000 nM.

Compound `Cc1ccc(C(NC(=O)Cc2ccc(N3CCC(S(C)(=O)=O)CC3)cc2)c2ccc(C)o2)c(N2CCCCC2)c1` (centres unmarked) [Cpd.18, 2-[4-(4-methanesulfonylpiperidin-1-yl)phenyl]-N-{[4-methyl-2-(piperidin-1-yl)phenyl](5-methylfuran-2-yl)methyl}acetamide] has an IC50 [1] of less than 100 nM, an IC50 [2] of less than 100 nM and an IC50 [3] of 100 to 1000 nM.
